Measurements published in patent US20240307345A1, “R-MDMA and S-MDMA TO ASSIST PSYCHOTHERAPY” (Universitatsspital Basel, priority 2022, published 2024).

How the values were obtained:
[1] = system: healthy subjects; assay: Acute subjective effects on the Visual Analog Scale (VAS); assay type: in vivo, human
Procedure: (§1) Study design: The present study compares the acute subjective, physiological and endocrine effects of S-MDMA (125 mg), R-MDMA (125 and 250 mg), MDMA (125 mg) using a placebo-controlled double-blind 5-period cross-over design in 24 healthy subjects. Conditions are 1.) R-MDMA 125 mg, 2). R-MDMA 250 mg, 3) S-MDMA 125 mg, 4) MDMA 125 mg, 5) placebo. Treatment order is counterbalanced. Washout periods between substance administrations are at least 10 days. Study days include a 10-hour study session with a subsequent single measurement (short visit) the next morning (24 hours after drug administration).
Study procedures: The study takes place at the University Hospital Basel. Each of the test sessions last from 8:00 until 18:00 with a short visit the next morning (24 hours after application). An indwelling intravenous catheter is inserted into a subcutaneous vein of the forearm and baseline psychometric measures are obtained. Administration of the substance is at 9:00. Outcome measures (see below) are repeatedly assessed during the study session. Subjects are under continuous medical supervision until any alterations of consciousness have completely subsided and they leave the research facility.
Psychometric assessments: Visual Analog Scale (VAS): VASs is repeatedly used to assess subjective alterations in consciousness over time. Single scales are presented as 100 mm horizontal lines marked with “not at all” on the left and “extremely” on the right. The following VAS items are used: “any drug effect”, “good drug effect”, “bad drug effect”, “stimulated”, “liking”, “happy”, “content”, “talkative”, “open”, “trust”, “feeling close to others”, “anxiety”, “alteration of vision”, “alterations of hearing”, “sounds seem to influence what I see”, “alteration of sense of time”, “the boundaries between myself and my surroundings seem to blur”, “want to be with other people”, and “want to be alone”. Scales are administered before and repeatedly after substance administration and take approximately 2 minutes to fill out. The maximal ratings (Emax, 0-100) and areas under the effect-time curve (AUEC) are defined for each VAS and Emax and AUEC values compared between treatments using analysis of variance. 5-Dimensions of Altered States of Consciousness (5D-ASC): The 5 Dimensions of Altered States of Consciousness (5D-ASC) Scale is a questionnaire containing visual analog scales for 94 items (Studerus et al., 2010). The instrument contains five scales assessing mood, anxiety, derealization, depersonalization, changes in perception, auditory alterations, and reduced vigilance. The scale is well-validated (Studerus et al., 2010) and used internationally to evaluate effects of many other psychoactive substances. The overall psychedelic experience is reflected by the total […] score. Each item of the scale is scored on a 0-100 mm VAS. The attribution of the individual items to the subscales of the 5D-ASC is analyzed according to (Studerus et al., 2010). The 5D-ASC scale is administered once at the end of the session and subjects are instructed to retrospectively rate peak alterations that have been experienced during the study session. Adiective Mood Rating Scale (AMRS): The Adjective Mood Rating Scale (AMRS or EWL60S) is a 60-item Likert scale that allows repeated assessment of mood in 6 dimensions: Activation, inactivation, well-being, anxiety/depressed mood, extra- and introversion, and emotional excitability. The German EWL60S version is used. The AMRS consists of subscales measuring “activation,” “positive mood,” “extraversion,” “introversion,” “inactivation,” and “emotional excitability. The scale has previously been used to evaluate effects of many other psychoactive substances. Emax and AUEC scores will be defined for each subscale and compared between treatments using analysis of variance. The AMRS is administered repeatedly throughout the study session and once 3 days after each session. […]

[2] = system: healthy subjects; assay: Mood after effects day 1-3 (BDI score, SCL-90-R GSI score); assay type: in vivo, human
Procedure: as §1
Psychometric assessments: Visual Analog Scale (VAS): VASs is repeatedly used to assess subjective alterations in consciousness over time. Single scales are presented as 100 mm horizontal lines marked with “not at all” on the left and “extremely” on the right. […] Each item of the scale is scored on a 0-100 mm VAS. The attribution of the individual items to the subscales of the 5D-ASC is analyzed according to (Studerus et al., 2010). […]

[3] = system: mice; settings: cited from earlier work
[4] = system: model of PTSD; settings: cited from earlier work
[5] = system: animals; settings: various animal studies; cited from earlier work

Compound: CN[C@@H](C)Cc1ccc2c(c1)OCO2 [S-MDMA, S(+)-MDMA]
- how much stimulated participants felt ([1]; 125 mg S-MDMA compared to (±)-MDMA): no significant difference
- how much stimulated participants felt ([1]; 125 mg S-MDMA compared to both doses of R-MDMA): higher values
- VAS Emax for “bad drug effects,” “alteration of vision” and “audio-visual synesthesia” ([1]; 125 mg S-MDMA compared with 125 mg (±)-MDMA, 24 subjects): higher Emax values
- VAS items “alteration of vision” and “audio-visual synesthesia” ([1]; 125 mg S-MDMA compared with both R-MDMA doses and (±)-MDMA): higher increases
- all VAS items except “fear” ([1]; 125 mg S-MDMA versus 250 mg R-MDMA): significant stronger effects
- VAS “any drug effects”, “good drug effects”, “I like the effect”, “stimulation”, “alteration of time” and “ego dissolution” ([1]; 125 mg S-MDMA versus 125 and 250 mg R-MDMA): more than 125 and 250 mg R-MDMA
- VAS “bad drug effects,” “alteration of vision” and “audio-visual synesthesia” ([1]; 125 mg S-MDMA versus (±)-MDMA and 250 mg R-MDMA): stronger
- VAS “talkative,” “open,” “trust,” and “I feel close to others” ([1]; 125 mg, compared with both R-MDMA doses and placebo): higher values
- feelings of “drug high” ([1]; S-MDMA compared with R-MDMA, abuse potential): greater
- BDI and GSI scores ([2]; 125 mg, one to three days after substance administration): only increased
- onset of interoceptive effects ([3]; compared with R-MDMA): faster
- conditioned fear during extinction training [4]: reduced conditioned fear during extinction training but not thereafter
- social interaction [5]: only slightly with S-MDMA or not at all

Compound: CN[C@H](C)Cc1ccc2c(c1)OCO2 [R-MDMA, R(−)-MDMA]
- VAS Emax for “feeling high” ([1]; 250 mg R-MDMA compared with 125 mg (±)-MDMA, 24 subjects): lower Emax values
- VAS “drug high”, “happy”, “content”, “talkative”, “open”, “trust” and “I feel close to others” ([1]; 250 mg R-MDMA versus (±)-MDMA and S-MDMA): lower effects
- mood after administration ([2]; R-MDMA compared with S-MDMA): did not depress mood after administration
- duration of discriminative stimulus effects [3]: shortest
- conditioned fear when retention of extinction was assessed [4]: reduced conditioned fear
- social interaction [5]: Increased social interaction
